Source: patent US20220152004A1, “HETEROCYCLYL(PHENYL)METHANOL COMPOUNDS USEFUL IN THE TREATMENT OF HYPERGLYCAEMIA” (ATROGI AB, priority 2019, published 2022)

Tests used:
L6-myotubes [1] = assay: Glucose uptake (3H-2-deoxy-glucose) in differentiated L6-myotubes; type: cell-based; details: Table 2; glucose uptake assay of Biological Example 1; agonist final concentration 1×10^−5
Experimental: (§1) L6-myoblasts were grown in Dulbecco's Modified Eagle's Medium (DMEM) containing 4.5 g/l glucose supplemented with 10% fetal bovine serum, 2 mM L-Glutamine, 50 U/ml penicillin, 50 μg/ml streptomycin and 10 mM HEPES. Cells were plated at 1×10^5 cells per ml in 24-well plates. After reaching 90% confluence the cells were grown in medium containing 2% FBS for 7 days where upon cells differentiated into myotubes.
Differentiated L6-myotubes were serum-starved overnight in medium containing 0,5% fatty-acid free BSA and stimulated with agonist, final concentration 1×10^−5. After 1 h 40 min cells were washed with warm, glucose free medium or PBS and another portion of agonist was added to glucose free medium. After 20 min the cells were exposed to 50 nM ^3H-2-deoxy-glucose for another 10 min before washed in ice cold glucose free medium or PBS and lysed in 0.2 M NaOH for 1 h in 60° C.

L6-myotubes [2] = assay: Measurement of intracellular cAMP levels in differentiated L6-myotubes; type: cell-based; details: Table 2; cAMP assay of Biological Example 2; agonist final concentration 1×10^−5
Experimental: as §1
Differentiated cells were serum-starved overnight and stimulated with agonist, final concentration 1×10^−5, for 15 min in stimulation buffer (HBSS supplemented with 1% BSA, 5 mM HEPES and 1 mM IBMX, pH 7,4) The medium was then aspirated and to end the reaction 100 μL of 95% EtOH was added to each well of a 24-well plate and cells were kept in −20° C. over night. The EtOH was let to evaporate and 500 μL of lysis buffer (1% BSA, 5 mM HEPES and 0,3% Tween-20, pH 7,4) was added to each well before put in −80° C. for 30 min and then kept in −20° C. Intracellular cAMP levels were detected using an alpha screen cAMP kit (6760635D from Perkin Elmer). The activity for each compound is compared to that of isoproterenol.

SMILES | Biological example 3 (L6-myotubes [1]) | Biological example 4 (L6-myotubes [2])
CC1(C)C[C@@H]([C@@H](O)c2ccccc2F)N1.Cl [Example 34, (S)-((S)-4,4-dimethylazetidin-2-yl)(2-fluorophenyl)methanol hydrochloride] | + (between 50 and 25%) | − (less than 25%)
CC1(C)C[C@H]([C@H](O)c2ccccc2F)N1.Cl [Example 35, (R)-((R)-4,4-dimethylazetidin-2-yl)(2-fluorophenyl)methanol hydrochloride] | +++ (more than 75% of that of isoproterenol) | + (between 50 and 25%)
CC1(C)C[C@H]([C@@H](O)c2ccccc2F)N1.Cl [Example 36, (S)-((R)-4,4-dimethylazetidin-2-yl)(2-fluorophenyl)methanol hydrochloride] | + (between 50 and 25%) | − (less than 25%)
CC1(C)C[C@@H]([C@H](O)c2ccccc2F)N1.Cl [Example 37, (R)-((S)-4,4-dimethylazetidin-2-yl)(2-fluorophenyl)methanol hydrochloride] | − (less than 25%) | − (less than 25%)
CC1(C)C[C@@H]([C@H](O)c2cccc(F)c2)N1.Cl [Example 39, (R)-((S)-4,4-dimethylazetidin-2-yl)(3-fluorophenyl)methanol hydrochloride] | − (less than 25%) | − (less than 25%)
CC1(C)C[C@@H]([C@@H](O)c2cccc(F)c2)N1.Cl [Example 40, (S)-((S)-4,4-dimethylazetidin-2-yl)(3-fluorophenyl)methanol hydrochloride] | + (between 50 and 25%) | − (less than 25%)
CC1(C)CCC[C@@H]([C@H](O)c2ccccc2F)N1.Cl [Example 41, (R)-((S)-6,6-dimethylpiperidin-2-yl)(2-fluorophenyl)methanol hydrochloride] | +++ (more than 75% of that of isoproterenol) | + (between 50 and 25%)
CC1(C)CCC[C@@H]([C@@H](O)c2ccccc2F)N1.Cl [Example 42, (S)-((S)-6,6-dimethylpiperidin-2-yl)(2-fluorophenyl)methanol hydrochloride] | + (between 50 and 25%) | − (less than 25%)
CC1(C)CCC[C@@H]([C@@H](O)c2cccc(F)c2)N1.Cl [Example 43, (S)-((S)-6,6-dimethylpiperidin-2-yl)(3-fluorophenyl)methanol hydrochloride] | + (between 50 and 25%) | − (less than 25%)
CC1(C)CCC[C@@H]([C@H](O)c2cccc(F)c2)N1.Cl [Example 44, (R)-((S)-6,6-dimethylpiperidin-2-yl)(3-fluorophenyl)methanol hydrochloride] | ++ (between 75 and 50%) | − (less than 25%)
CC1(C)C[C@H]([C@H](O)c2cccc(Cl)c2)N1.O=C(O)/C=C\C(=O)O [Example 45, (R)-(3-chlorophenyl)((R)-4,4-dimethylazetidin-2-yl)methanol maleate] | +++ (more than 75% of that of isoproterenol) | − (less than 25%)
CC1(C)C[C@H]([C@@H](O)c2cccc(Cl)c2)N1.O=C(O)/C=C\C(=O)O [Example 46, (S)-(3-chlorophenyl)((R)-4,4-dimethylazetidin-2-yl)methanol maleate] | − (less than 25%) | − (less than 25%)
CC1(C)C[C@@H]([C@H](O)c2cccc(Cl)c2)N1.O=C(O)/C=C\C(=O)O [Example 47, (R)-(3-chlorophenyl)((S)-4,4-dimethylazetidin-2-yl)methanol maleate] | ++ (between 75 and 50%) | − (less than 25%)
CC1(C)C[C@@H]([C@@H](O)c2cccc(Cl)c2)N1.O=C(O)/C=C\C(=O)O [Example 48, (S)-(3-chlorophenyl)((S)-4,4-dimethylazetidin-2-yl)methanol maleate] | + (between 50 and 25%) | − (less than 25%)
CC1(C)CC[C@H]([C@H](O)c2cccc(N)c2F)N1.Cl [Example 49, (R)-(3-amino-2-fluorophenyl)((R)-5,5-dimethylpyrrolidin-2-yl)methanol hydrochloride] | +++ (more than 75% of that of isoproterenol) | − (less than 25%)
CC1(C)CC[C@H]([C@@H](O)c2cccc(N)c2F)N1.Cl [Example 50, (S)-(3-amino-2-fluorophenyl)((R)-5,5-dimethylpyrrolidin-2-yl)methanol hydrochloride] | + (between 50 and 25%) | − (less than 25%)
